Laboratory results: patent US20150168386A1, “METHOD AND SYSTEM FOR IDENTIFYING LEAKY LUNG EPITHELIAL BARRIER” (priority 2013, published 2015)

Key:
16HBE cells = assay: flux of mannitol across human bronchial epithelial monolayers; assay type: in vitro ADME; details: 16HBE cells confluent on semipermeable membrane; lower chamber after 1 hour, colorimetric assay; unstimulated or PolyI:C pretreated 18 hours
Protocol: The x-axis indicates the concentration of mannitol applied to the upper chamber of 16HBE cells grown to confluence on a semipermeable membrane. The y-axis indicates the concentration of mannitol detected in the lower chamber after 1 hour, determined using a colorimetric assay (where OD refers to optical density). 16HBE cells were either unstimulated (open bars) or pretreated with the viral mimetic PolyI:C (closed bars) for 18 hours prior to analysis of mannitol permeability. Note that in both unstimulated and PolyI:C-stimulated cells, the mannitol concentration detected in the lower chamber increased steadily with the concentration of mannitol applied to the top chamber (i.e. there was no plateau). This is indicative of movement across the monolayer via paracellular routes (as opposed to receptor mediated transport, for example).

[1] = parameters: species or system C57BL/6 mice; details: mouse, in vivo
Text: In this experiment, 6-8 week old C57BL/6 mice were infected with a clinical isolate of RSV 9 (strain A2) intranasally (i.n.) on day 0 (d0), and then challenged with orally inhaled mannitol on days 2 and 4 as indicated by the arrows in the schematic (top of figure). Two hours after each mannitol inhalation, urine was collected from mice by scruffing, and analyzed for mannitol using a colorimetric assay. They are expressed as fold change in urine mannitol relative to uninfected control mice on d0, which was set at 1. Data are mean±standard error of the mean, of n=5-6 mice per group. * indicated p<0.05.

[2] = urinary mannitol clearance after inhaled mannitol in human subjects; assay type: in vivo; details: 635 mg inhaled mannitol; urine over 24 hours, mass spectrometry; 6 subjects with asthma symptoms vs 2 healthy controls
Text: Results are expressed as urinary mannitol clearance, or the concentration in the urine samples collected multiplied by the amount of urine produced. […] The horizontal bar indicates mean values.

OC[C@@H](O)[C@@H](O)[C@H](O)[C@H](O)CO [mannitol]
flux of mannitol across the monolayer (16HBE cells): non-saturable | excretion of orally inhaled mannitol (fold change in urine mannitol relative to uninfected control mice on d0) [1]: higher in mice infected with respiratory syncytial virus (RSV) infection | urinary mannitol clearance [2]: Subjects with asthma symptoms had higher mannitol clearance on average
